Reference: US20240108607A1, “METHOD FOR MANUFACTURING NOVEL NITROGEN-CONTAINING COMPOUND OR SALT THEREOF AND MANUFACTURING INTERMEDIATE OF NOVEL NITROGEN-CONTAINING COMPOUND OR SALT THEREOF” (FUJIFILM Corporation, priority 2015, published 2024)
Like-named read-outs stand apart in the source and are kept apart here. Values belong to the compound of their own block, whether it stands above or below them.

How the values were obtained:
[1] = Radiochemical purity after standing at room temperature (reversed-phase TLC); type: physicochemical
Description: A indium [^111In] chloride solution (80 MBq, 100 μL) was added to a mixture of the compound A (8.5 μg) and a 0.2 mol/L sodium acetate buffer solution (pH 4.0) (1.5 mL). The solution was heated to 100° C. for 15 minutes and then left to stand for 5 minutes at room temperature, thereby obtaining [^111In]-(compound A). […] The radiochemical purity measured immediately after the compound was prepared and measured after 24 hours at room temperature was equal to or higher than 95%.
A yttrium [^90Y] chloride solution (700 MBq, 240 μL) was added to a mixture of the compound (79 μg), gentisic acid (1.8 mg), a 0.6 mol/L sodium acetate buffer solution (pH 4.0, 120 μL), and 0.4 mol/L aqueous sodium hydroxide solution (24 μL). The solution was heated to 100° C. for 20 minutes and then left to stand for 5 minutes at room temperature, thereby obtaining [90^Y]-(compound A). […] The radiochemical purity measured immediately after the compound was prepared and measured after 24 hours at room temperature was equal to or higher than 95%.
A copper [^64Cu] chloride solution (pH 5, 35 MBq, 55 μL) was added to a mixture of the compound A (5.8 μg) and 0.2 mol/L sodium acetate buffer solution (pH 4.0, 219 μL). The solution was heated to 100° C. for 15 minutes and left to stand for 5 minute at room temperature, thereby obtaining [^64Cu]-(compound A). […] The radiochemical purity measured immediately after the compound was prepared and measured after 22 hours at room temperature was equal to or higher than 90%.
A 0.2 mol/L sodium acetate buffer solution of Copper [^64Cu] chloride (pH 4.0) (40 MBq, 155 μL) was added to a mixture of the compound B (4.2 μg), gentisic acid (1 mg), and a 0.2 mol/L sodium acetate buffer solution (pH 4.0) (5.0 μL). The solution was heated to 100° C. for 15 minutes and left to stand for 5 minutes at room temperature, thereby obtaining [^64Cu]-(compound B). […] The radiochemical purity measured immediately after the compound was prepared and measured after 24 hours at room temperature was equal to or higher than 90%.
(§1) A gallium [^67Ga] chloride solution (200 MBq, 63 μL) was added to a mixed solution of the compound A (21 μg), gentisic acid (1.0 mg), a 0.2 mol/L sodium acetate buffer solution (pH 4.0, 730.7 μL), and 4.5 mol/L aqueous sodium hydroxide solution (6.3 μL). The solution was heated to 100° C. for 15 minutes and then left to stand for 5 minutes at room temperature, thereby obtaining [^67Ga]-(compound A).
A lutetium [^177Lu] chloride solution (666 MBq, 333 μL) dissolved in a 0.2 mol/L sodium acetate buffer solution (pH 4.0) was added to a mixed solution of the compound A (70.0 μg), gentisic acid (1.8 mg), and a 0.2 mol/L sodium acetate buffer solution (pH 4.0, 83.3 μL). The solution was heated to 100° C. for 15 minutes and then left to stand for 5 minutes at room temperature, thereby obtaining [^177Lu]-(compound A).
as §1, with “(40” for “(200”, “11.7” for “63”, “B (4.1” for “A (21”, “4.5, 147.13” for “4.0, 730.7”, “(1.17” for “(6.3”, “B).” for “A).”

[2] = tested on: U87MG cells; experiment: Radioactivity concentration of labeled compounds in tumor, U87MG subcutaneous transplantation; type: in vivo, mice (Balb/c AJcl-nu/nu); details: caudal vein, 111In 740 kBq, 64Cu and 90Y 500 kBq
Description: Test Example 3 Evaluation based on radioactivity concentration of ^111In-labeled compound, ^64Cu-labeled compound, and ^90Y-labeled compound in tumor
After 2 to 3 weeks, at a point in time when the tumor volume became 200 to 500 mm^3, 3 mice were sorted into one group at each point in time. The ^111In-labeled compound (740 k Bq) was administered into the caudal vein, the animals were sacrificed after a certain period of time, and the tumor was extracted. The weight of the tumor was measured, the radioactivity was measured using a gamma counter, and the radioactivity concentration in tumor (% ID/g) was calculated. For the ^64Cu-labeled compound (500 k Bq) and the ^90Y-labeled compound (500 k Bq), the radioactivity concentration in tumor (% ID/g) was calculated by the same method.

[3] = tested on: U87MG cells; details: 1 time; for Number of animals showing regression: 8 animals; for Inhibition rate: 16 days after administration; for Tumor volume 16 days after administration / Tumor volume At the beginning of administration: Mean ± SD
Description: Test Example 7 Therapeutic Test on U87MG Subcutaneous Transplantation Model Using [^90Y]-(Compound A)
1×10^7 U87MG cells were transplanted into the subcutaneous space of the right flank of Balb/c Slc-nu/nu (males, 6-week-old, Japan SLC. Inc). After 2 weeks, the mice with a tumor having a volume of 100 to 500 mm^3 were grouped. A phosphate buffered saline (PBS) or [^90Y]-(compound A) was administered into the caudal vein, and the tumor volume was measured. At a point in time when the tumor volume of the mice of the PBS group exceeded 2,000 mm^3 which is a humane endpoint, the antitumor activity was evaluated.

[4] = tested on: T98G cell (human glioblastoma); experiment: Therapeutic test on T98G subcutaneous transplantation model; type: in vivo, mice (Balb/c Slc-nu/nu); details: 1 time; for Number of animals showing regression: 6 animals; for Inhibition rate: 13 days after administration; for Tumor volume 13 days after administration / Tumor volume At the beginning of administration: Mean ± SD
Description: Test Example 8 Therapeutic Test on T98G Subcutaneous Transplantation Model Using [^90Y]-(Compound A)
After 77 days, at a point in time when the tumor volume reached 300 to 1,200 mm^3, the mice were grouped. […] The evaluation values were calculated by the same method as in Test Example 7, and the antitumor activity was evaluated.

[5] = Absorbed dose in a human being simulated with OLINDA/EXM 1.0 from monkey organ distribution
Description: (§2) Blood was collected from a crab-eating macaque over time, and by using [^111In]-(compound A), from the radioactivity concentration in the blood, kinetic parameters of the compound in blood were calculated by OLINDA/EXM 1.0. Furthermore, by using [^111In]-(compound A), from the organ distribution obtained by imaging, the absorbed dose of each organ obtained in a case where the compound is administered to a human being was calculated using OLINDA/EXM 1.0. [^111In]-(compound A) (98 MBq/9.3 μg) was administered to a crab-eating macaque (Hamri Co., Ltd., males, 3-year-old, 3.4 kg) under anesthesia. After the administration, blood was collected over time, and imaging was performed using a gamma camera. The blood was collected 10, 30, and 60 minutes after the administration and 2, 4, 5, 6, 24, 48, 72, and 144 hours after the administration. Regarding the imaging, after 1, 2, 4, 6, 24, 48, 72, and 144 hours, planar imaging was performed using a gamma camera (Symbia, Siemens Healthcare GmbH). Regarding the anesthesia, the animal was anesthetized with ketamine at 20 mg/kg before the administration of [^111In]-(compound A) and kept anesthetized until the end of imaging, which was continued for 6 hours after the administration, by inhalation anesthesia (isofluran 2 to 3%, 5 to 8 L/min). After 24 hours, ketamine (20 mg/kg) and xylazine (2 mg/kg) were administered to perform blood collection and imaging.
(§3) Furthermore, by using exposure dose analysis software OLINDA/EXM 1.0, the absorbed dose in a human being was simulated using each of the labeled compounds, and the results are shown below.

[6] = Monkey blood kinetics and planar imaging; type: in vivo, crab-eating macaque
Description: Test Example 9 Imaging of Monkey by Using [^111In]-(Compound A)
as §2
The kinetic parameters in blood are also shown below.
as §3

- radiochemical purity immediately after preparation and after 24 hours at room temperature [1]: ≥ 95%
- Radioactivity concentration in tumor After 4 hours [2]: 11.10 % ID/g
- Radioactivity concentration in tumor After 24 hours [2]: 9.62 % ID/g
- AUC ([6]; blood, 98 MBq/9.3 μg): 0.22 % ID · h/mL
- CL ([6]; blood, 98 MBq/9.3 μg): 2.17 mL/min/kg
- Cmax ([6]; blood, 98 MBq/9.3 μg): 0.018 % ID/mL
- T½α ([6]; blood, 98 MBq/9.3 μg): 0.46 h
- T½β ([6]; blood, 98 MBq/9.3 μg): 19.3 h
- Vss ([6]; blood, 98 MBq/9.3 μg): 3.52 L/kg
- integration into the bladder and the gall bladder (planar imaging) ([6]; up to 6 hours after the administration): increased over time
- Absorbed dose Brain [5]: 0.25 mGy/MBq
- Absorbed dose Kidney [5]: 1.19 mGy/MBq
- Absorbed dose Liver [5]: 0.19 mGy/MBq
- Absorbed dose Lung [5]: 0.12 mGy/MBq
- Absorbed dose Red marrow [5]: 0.05 mGy/MBq
- Absorbed dose Small intestine [5]: 0.05 mGy/MBq
- Absorbed dose Whole body [5]: 0.05 mGy/MBq
SMILES: Cc1cc(OCCCC(=O)NCCNC(=O)C(CS(=O)(=O)O)NC(=O)CN2CCN(CC(=O)[O-])CCN(CC(=O)[O-])CCN(CC(=O)[O-])CC2)cc(C)c1S(=O)(=O)NC(CNC(=O)CCCCc1ccc2c(n1)NCCC2)C(=O)O.[111In+3] (stereo not shown) [[^111In]-(compound A)]

- radiochemical purity immediately after preparation and after 3 hours at room temperature ([1]; 3 hours): ≥ 95%
SMILES: Cc1cc(OCCCC(=O)NCCNC(=O)[C@H](CS(=O)(=O)O)NC(=O)CN2CCN(CC(=O)[O-])CCN(CC(=O)[O-])CCN(CC(=O)[O-])CC2)cc(C)c1S(=O)(=O)N[C@@H](CNC(=O)CCCCc1ccc2c(n1)NCCC2)C(=O)O.[177Lu+3] [[^177Lu]-(compound A)]

The next lines start with the compound.

SMILES: Cc1cc(OCCCC(=O)NCCNC(=O)[C@H](CS(=O)(=O)O)NC(=O)CC[C@H](C(=O)O)N2CCN(CC(=O)[O-])CCN(CC(=O)[O-])CC2)cc(C)c1S(=O)(=O)N[C@@H](CNC(=O)CCCCc1ccc2c(n1)NCCC2)C(=O)O.[64Cu+2] [[^64Cu]-(compound B)]
- radiochemical purity immediately after preparation and after 24 hours at room temperature [1]: ≥ 90%
- Radioactivity concentration in tumor After 4 hours [2]: 11.19 % ID/g
- Radioactivity concentration in tumor After 24 hours [2]: 8.53 % ID/g

SMILES: Cc1cc(OCCCC(=O)NCCNC(=O)[C@H](CS(=O)(=O)O)NC(=O)CN2CCN(CC(=O)[O-])CCN(CC(=O)[O-])CCN(CC(=O)[O-])CC2)cc(C)c1S(=O)(=O)N[C@@H](CNC(=O)CCCCc1ccc2c(n1)NCCC2)C(=O)O.[67Ga+3] [[^67Ga]-(compound A)]
- radiochemical purity immediately after preparation and after 3.5 hours at room temperature ([1]; 3.5 hours): ≥ 95%

SMILES: Cc1cc(OCCCC(=O)NCCNC(=O)[C@H](CS(=O)(=O)O)NC(=O)CC[C@H](C(=O)[O-])N2CCN(CC(=O)[O-])CCN(CC(=O)[O-])CC2)cc(C)c1S(=O)(=O)N[C@@H](CNC(=O)CCCCc1ccc2c(n1)NCCC2)C(=O)O.[67Ga+3] [[^67Ga]-(compound B)]
- radiochemical purity immediately after preparation and after 5.5 hours at room temperature ([1]; 5.5 hours): ≥ 95%

SMILES: Cc1cc(OCCCC(=O)NCCNC(=O)C(CS(=O)(=O)O)NC(=O)CN2CCN(CC(=O)[O-])CCN(CC(=O)[O-])CCN(CC(=O)[O-])CC2)cc(C)c1S(=O)(=O)NC(CNC(=O)CCCCc1ccc2c(n1)NCCC2)C(=O)O.[90Y+3] (stereo not shown) [[^90Y]-(compound A)]
- radiochemical purity immediately after preparation and after 24 hours at room temperature [1]: ≥ 95%
- Number of animals showing regression ([3]; 14.8 MBq): 2
- Inhibition rate ([3]; 14.8 MBq): 95%
- Tumor volume 16 days after administration ([3]; 14.8 MBq): 429 ± 188 mm^3
- Tumor volume At the beginning of administration ([3]; 14.8 MBq): 351 ± 72 mm^3
- Number of animals showing regression ([3]; 22.2 MBq): 2
- Inhibition rate ([3]; 22.2 MBq): 97%
- Tumor volume 16 days after administration ([3]; 22.2 MBq): 386 ± 142 mm^3
- Tumor volume At the beginning of administration ([3]; 22.2 MBq): 343 ± 88 mm^3
- Radioactivity concentration in tumor After 4 hours [2]: 12.52 % ID/g
- Radioactivity concentration in tumor After 24 hours [2]: 15.29 % ID/g
- Number of animals showing regression ([4]; 22.2 MBq): 1
- Inhibition rate ([4]; 22.2 MBq): 82%
- Tumor volume 13 days after administration ([4]; 22.2 MBq): 882 ± 399 mm^3
- Tumor volume At the beginning of administration ([4]; 22.2 MBq): 755 ± 293 mm^3
- Number of animals showing regression ([4]; 29.6 MBq): 3
- Inhibition rate ([4]; 29.6 MBq): 97%
- Tumor volume 13 days after administration ([4]; 29.6 MBq): 755 ± 313 mm^3
- Tumor volume At the beginning of administration ([4]; 29.6 MBq): 736 ± 264 mm^3
- Absorbed dose Brain [5]: 1.96 mGy/MBq
- Absorbed dose Kidney [5]: 14.7 mGy/MBq
- Absorbed dose Liver [5]: 1.12 mGy/MBq
- Absorbed dose Lung [5]: 1.35 mGy/MBq
- Absorbed dose Red marrow [5]: 0.06 mGy/MBq
- Absorbed dose Small intestine [5]: 0.87 mGy/MBq
- Absorbed dose Whole body [5]: 0.27 mGy/MBq
